From patent US7632829B2, “Diazepan derivatives” (Hoffmann-La Roche Inc., priority 2006, dated 2009)

How the values were obtained:
[1] = molecular target: T1, human chemokine receptor 2 isoform B (Homo sapiens, UniProt P41597); experiment: Calcium mobilization assay (FLIPR, CHOK1-CCR2B-A5 cells, 20 nM MCP-1); assay type: cell-based; conditions: Ca mobilisation assay, CCR2, antagonist activity vs 20 nM MCP-1
T1 construct: host or cells: CHOK1-CCR2B-A5 (CHO-K1)
T1 sequence (P41597 1-360 isoform P41597-2): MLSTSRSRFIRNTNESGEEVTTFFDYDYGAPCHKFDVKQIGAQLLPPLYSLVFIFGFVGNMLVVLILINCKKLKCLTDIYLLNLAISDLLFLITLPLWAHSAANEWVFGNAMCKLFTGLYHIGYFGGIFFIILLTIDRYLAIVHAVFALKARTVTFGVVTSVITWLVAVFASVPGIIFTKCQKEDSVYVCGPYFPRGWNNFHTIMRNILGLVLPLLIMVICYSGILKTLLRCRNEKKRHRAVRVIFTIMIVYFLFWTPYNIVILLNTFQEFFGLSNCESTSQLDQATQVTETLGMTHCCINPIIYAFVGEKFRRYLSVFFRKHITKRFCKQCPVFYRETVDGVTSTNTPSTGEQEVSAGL
Summary of the method: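 Antagonism read as IC50 against 20 nM MCP-1-evoked calcium rise (peak minus baseline Fluo-4 signal, FLIPR) in CCR2B-overexpressing CHO-K1 cells. Compounds were preincubated 20-30 min at 30 °C, with agonist activity recorded for 80 s on addition.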

CCR2 = molecular target: T2, CCR2 (Homo sapiens, UniProt P41597); experiment: Chemotaxis assay (THP1-4x cells, migration towards 10 nM MCP-1); assay type: cell-based; conditions: inhibition of specific migration towards MCP-1
T2 construct: endogenous in cells; host or cells: THP1-4x cells
T2 sequence (P41597 1-360 isoform P41597-2): T1 sequence (P41597 1-360 isoform P41597-2)
Protocol: The chemotaxis assay was performed with THP1-4x cells (Mirzadegan et al. 2000, The Journal of Biological Chemistry 275, 33, 25562-25571) similar as described earlier (Kruszynski et al. 2005, Journal of Peptide Science, in press.).
THP1-4x were cultured in RPMI1640, 2 mM L-glutamine, 0.15% Na-bicarbonat, 0.25% D-glucose, 10 mM Hepes, […] Na-pyruvate, […] β-mercaptoethanol, 10% FBS. Isolated cells were labelled in culture medium with 2.5 μg/ml calcein-AM (Molecular Probes) for 60 minutes at 37° C. Excess calcein was removed and cells were washed in D-PBS^++, 2% FBS.
Cells (1×10^5) with or without various concentrations of test compounds were loaded on the top of 8-μm polycarbonate filter in a 96-well-modified Boyden chamber (NeuroProbe). Beneath the filter 10 nM MCP-1 (R&D Systems; Roche) with or without test compounds or D-PBS^++, 2% FBS was placed in the corresponding well. The closed chambers were incubated for 1 hour at 37° C., 5% CO2. Remaining cells in the top compartment were wiped off and migrated cells were measured as fluorescence in the bottom compartment in a FLUOstar (Galaxy BMG) at 485 nm excitation and 530 nm emission. Specific migration is defined as total migration towards MCP-1 minus the background migration towards D-PBS^++, 2% FBS. The ability of test compounds to antagonize CCR2-chemotaxis is reported as concentration required to inhibit 50% of specific migration (IC50) towards MCP-1.

Compound | IC50 [1] | IC50 (CCR2)
O=C(/C=C/c1ccc(Cl)c(Cl)c1)N1CCC(=O)N(CCN2CCCC2)CC1 [Example 160, 1-[(E)-3-(3,4-Dichloro-phenyl)-acryloyl]-4-(2-pyrrolidin-1-yl-ethyl)-[1,4]diazepan-5-one] | 232 nM | 101 nM
C[C@@H]1C[C@H](O)CN(C[C@H](O)CCN2CCN(C(=O)/C=C/c3ccc(F)c(Cl)c3)CCC2=O)C1 [Example 502] | 253 nM | 
(rac)-1-[(E)-3-(3,4-Dichloro-phenyl)-acryloyl]-4-[2-hydroxy-3-(2-hydroxy-2-hydroxymethyl-piperidin-1-yl)-propyl]-[1,4]diazepan-5-one [Example 307] | 437 nM | 
(rac)-1-[(E)-3-(3,4-Dichloro-phenyl)-acryloyl]-4-[4-(3-hydroxy-5-methoxymethyl-piperidin-1-yl)-butyl]-[1,4]diazepan-5-one [Example 490] | 26 nM | 
(rac)-N-[1-(4-{4-[(E)-3-(3,4-Dichloro-phenyl)-acryloyl]-7-oxo-[1,4]diazepan-1-yl}-butyl)-piperidin-3-yl]-acetamide [Example 463] | 348 nM | 

More lines, now with the values ahead:

IC50 [1] | IC50 (CCR2) | Compound
204 nM | 71 nM | O=C(/C=C/c1ccc(Cl)c(Cl)c1)N1CCC(=O)N(CCCN2CCCC(O)C2)CC1 (racemic) [Example 81, (+/−)-1-[(E)-3-(3,4-Dichloro-phenyl)-acryloyl]-4-[3-(3-hydroxy-piperidin-1-yl)-propyl]-[1,4]diazepan-5-one]
64 nM | 13 nM | O=C1NC(=O)C2(CCN(CCCN3CCN(C(=O)/C=C/c4ccc(Cl)c(Cl)c4)CCC3=O)CC2)N1 [Example 48, 8-(3-{4-[(E)-3-(3,4-Dichloro-phenyl)-acryloyl]-7-oxo-[1,4]diazepan-1-yl}-propyl)-1,3,8-triaza-spiro[4.5]decane-2,4-dione]
14 nM | 77 nM | O=C(/C=C/c1ccc(Cl)c(Cl)c1)N1CCC(=O)N(CCCN2CCC(O)(c3ccccc3)CC2)CC1 [Example 59, 1-[(E)-3-(3,4-Dichloro-phenyl)-acryloyl]-4-[3-(4-hydroxy-4-phenyl-piperidin-1-yl)-propyl]-[1,4]diazepan-5-one]
451 nM |  | CC1(C)CCN(C[C@H](O)CCN2CCN(C(=O)/C=C/c3ccc(F)c(Cl)c3)CCC2=O)CC1O (stereo partly drawn) [Example 500]
155 nM |  | CC1(C)CCN(C[C@H](O)CCN2CCN(C(=O)/C=C/c3ccc(Cl)c(Cl)c3)CCC2=O)CC1O (stereo partly drawn) [Example 501]
51 nM |  | C[C@@H]1C[C@H](O)CN(C[C@H](O)CCN2CCN(C(=O)/C=C/c3ccc(Cl)c(Cl)c3)CCC2=O)C1 [Example 503]
